How the values were obtained:
[1] = tested on: LOX IMVI; assay: panel of 60 human tumor cell lines, growth inhibition (Melanoma)
[2] = tested on: UACC-257; assay: as above; details: UACC-257
[3] = tested on: SF-268; assay: panel of 60 human tumor cell lines, growth inhibition (CNS Cancer); details: SF-268
[4] = tested on: SF-295; assay: as above; details: SF-295
[5] = tested on: SNB-19; assay: as above; details: SNB-19
[6] = tested on: U251; assay: as above; details: U251
[7] = tested on: HCC-2998; assay: panel of 60 human tumor cell lines, growth inhibition (Colon Cancer); details: HCC-2998
[8] = tested on: SW-620; assay: as above; details: SW-620
[9] = tested on: A498; assay: panel of 60 human tumor cell lines, growth inhibition (Renal Cancer); details: A498
[10] = tested on: CAKI-1; assay: as above; details: CAKI-1
[11] = tested on: SN12C; assay: as above
[12] = tested on: MDA-MB-231/ATCC; assay: panel of 60 human tumor cell lines, growth inhibition (Breast Cancer); details: MDA-MB-231/ATCC
[13] = tested on: IGROV1; assay: panel of 60 human tumor cell lines, growth inhibition (Ovarian Cancer); details: IGROVI
[14] = tested on: OVCAR-5; assay: as above; details: OVCAR-5
[15] = tested on: PC-3; assay: panel of 60 human tumor cell lines, growth inhibition (Prostate Cancer); details: PC-3
[16] = tested on: A549/ATCC; assay: panel of 60 human tumor cell lines, growth inhibition (Non-Small Cell Lung Cancer); details: A549/ATCC
[17] = tested on: HOP-62; assay: as above; details: HOP-62
[18] = tested on: HOP-92; assay: as above; details: HOP-92
[19] = tested on: NCI-H522; assay: as above; details: NCI-H522

C=C1C(=O)O[C@H]2[C@H]1CC/C(COC(=O)CCC(=O)N1CCC(C)CC1)=C\CC[C@@]1(C)O[C@@H]21 [JVM 2-70]
Percent Growth ([1]; Log10 Concentration −4.0): −84%
Percent Growth ([1]; Log10 Concentration −5.0): 4%
Percent Growth ([1]; Log10 Concentration −6.0): 91%
Percent Growth ([1]; Log10 Concentration −7.0): 96%
Percent Growth ([1]; Log10 Concentration −8.0): 96%
GI50 ([1]; NCI five dose): 2.95 µM
TGI ([1]; NCI five dose): 1.10E−5
Percent Growth ([2]; Log10 Concentration −4.0): −86%
Percent Growth ([2]; Log10 Concentration −5.0): 23%
Percent Growth ([2]; Log10 Concentration −6.0): 83%
Percent Growth ([2]; Log10 Concentration −7.0): 92%
Percent Growth ([2]; Log10 Concentration −8.0): 91%
GI50 ([2]; NCI five dose): 3.57 µM
TGI ([2]; NCI five dose): 1.64E−5
Percent Growth ([3]; Log10 Concentration −4.0): −72%
Percent Growth ([3]; Log10 Concentration −5.0): 67%
Percent Growth ([3]; Log10 Concentration −6.0): 93%
Percent Growth ([3]; Log10 Concentration −7.0): 101%
Percent Growth ([3]; Log10 Concentration −8.0): 100%
GI50 ([3]; NCI five dose): 13.2 µM
TGI ([3]; NCI five dose): 3.02E−5
Percent Growth ([4]; Log10 Concentration −4.0): −72%
Percent Growth ([4]; Log10 Concentration −5.0): 74%
Percent Growth ([4]; Log10 Concentration −6.0): 93%
Percent Growth ([4]; Log10 Concentration −7.0): 93%
Percent Growth ([4]; Log10 Concentration −8.0): 89%
GI50 ([4]; NCI five dose): 14.7 µM
TGI ([4]; NCI five dose): 3.23E−5
Percent Growth ([5]; Log10 Concentration −4.0): −80%
Percent Growth ([5]; Log10 Concentration −5.0): 73%
Percent Growth ([5]; Log10 Concentration −6.0): 95%
Percent Growth ([5]; Log10 Concentration −7.0): 96%
Percent Growth ([5]; Log10 Concentration −8.0): 95%
GI50 ([5]; NCI five dose): 14 µM
TGI ([5]; NCI five dose): 2.98E−5
Percent Growth ([6]; Log10 Concentration −4.0): −90%
Percent Growth ([6]; Log10 Concentration −5.0): 90%
Percent Growth ([6]; Log10 Concentration −6.0): 99%
Percent Growth ([6]; Log10 Concentration −7.0): 95%
Percent Growth ([6]; Log10 Concentration −8.0): 95%
GI50 ([6]; NCI five dose): 16.7 µM
TGI ([6]; NCI five dose): 3.16E−5
Percent Growth ([7]; Log10 Concentration −4.0): −80%
Percent Growth ([7]; Log10 Concentration −5.0): 59%
Percent Growth ([7]; Log10 Concentration −6.0): 110%
Percent Growth ([7]; Log10 Concentration −7.0): 103%
Percent Growth ([7]; Log10 Concentration −8.0): 106%
GI50 ([7]; NCI five dose): 11.5 µM
TGI ([7]; NCI five dose): 2.65E−5
Percent Growth ([8]; Log10 Concentration −4.0): −80%
Percent Growth ([8]; Log10 Concentration −5.0): 1%
Percent Growth ([8]; Log10 Concentration −6.0): 79%
Percent Growth ([8]; Log10 Concentration −7.0): 97%
Percent Growth ([8]; Log10 Concentration −8.0): 99%
GI50 ([8]; NCI five dose): 2.33 µM
TGI ([8]; NCI five dose): 1.02E−5
Percent Growth ([9]; Log10 Concentration −4.0): −92%
Percent Growth ([9]; Log10 Concentration −5.0): 29%
Percent Growth ([9]; Log10 Concentration −6.0): 67%
Percent Growth ([9]; Log10 Concentration −7.0): 54%
Percent Growth ([9]; Log10 Concentration −8.0): 58%
GI50 ([9]; NCI five dose): 2.77 µM
TGI ([9]; NCI five dose): 1.73E−5
Percent Growth ([10]; Log10 Concentration −4.0): −93%
Percent Growth ([10]; Log10 Concentration −5.0): 4%
Percent Growth ([10]; Log10 Concentration −6.0): 88%
Percent Growth ([10]; Log10 Concentration −7.0): 95%
Percent Growth ([10]; Log10 Concentration −8.0): 90%
GI50 ([10]; NCI five dose): 2.83 µM
TGI ([10]; NCI five dose): 1.11E−5
Percent Growth ([11]; Log10 Concentration −4.0): −82%
Percent Growth ([11]; Log10 Concentration −5.0): 30%
Percent Growth ([11]; Log10 Concentration −6.0): 92%
Percent Growth ([11]; Log10 Concentration −7.0): 93%
Percent Growth ([11]; Log10 Concentration −8.0): 97%
GI50 ([11]; NCI five dose): 4.8 µM
TGI ([11]; NCI five dose): 1.86E−5
Percent Growth ([12]; Log10 Concentration −4.0): −85%
Percent Growth ([12]; Log10 Concentration −5.0): 41%
Percent Growth ([12]; Log10 Concentration −6.0): 102%
Percent Growth ([12]; Log10 Concentration −7.0): 97%
Percent Growth ([12]; Log10 Concentration −8.0): 105%
GI50 ([12]; NCI five dose): 7.13 µM
TGI ([12]; NCI five dose): 2.12E−5
Percent Growth ([13]; Log10 Concentration −4.0): −52%
Percent Growth ([13]; Log10 Concentration −5.0): 19%
Percent Growth ([13]; Log10 Concentration −6.0): 104%
Percent Growth ([13]; Log10 Concentration −7.0): 118%
Percent Growth ([13]; Log10 Concentration −8.0): 109%
GI50 ([13]; NCI five dose): 4.32 µM
TGI ([13]; NCI five dose): 1.85E−5
Percent Growth ([14]; Log10 Concentration −4.0): −89%
Percent Growth ([14]; Log10 Concentration −5.0): 41%
Percent Growth ([14]; Log10 Concentration −6.0): 87%
Percent Growth ([14]; Log10 Concentration −7.0): 87%
Percent Growth ([14]; Log10 Concentration −8.0): 86%
GI50 ([14]; NCI five dose): 6.36 µM
TGI ([14]; NCI five dose): 2.06E−5
Percent Growth ([15]; Log10 Concentration −4.0): −72%
Percent Growth ([15]; Log10 Concentration −5.0): 66%
Percent Growth ([15]; Log10 Concentration −6.0): 94%
Percent Growth ([15]; Log10 Concentration −7.0): 93%
Percent Growth ([15]; Log10 Concentration −8.0): 94%
GI50 ([15]; NCI five dose): 13 µM
TGI ([15]; NCI five dose): 3.00E−5
Percent Growth ([16]; Log10 Concentration −4.0): −68%
Percent Growth ([16]; Log10 Concentration −5.0): 79%
Percent Growth ([16]; Log10 Concentration −6.0): 93%
Percent Growth ([16]; Log10 Concentration −7.0): 96%
Percent Growth ([16]; Log10 Concentration −8.0): 97%
GI50 ([16]; NCI five dose): 15.8 µM
TGI ([16]; NCI five dose): 3.47E−5
Percent Growth ([17]; Log10 Concentration −4.0): −68%
Percent Growth ([17]; Log10 Concentration −5.0): 78%
Percent Growth ([17]; Log10 Concentration −6.0): 91%
Percent Growth ([17]; Log10 Concentration −7.0): 92%
Percent Growth ([17]; Log10 Concentration −8.0): 86%
GI50 ([17]; NCI five dose): 15.5 µM
TGI ([17]; NCI five dose): 3.41E−5
Percent Growth ([18]; Log10 Concentration −4.0): −91%
Percent Growth ([18]; Log10 Concentration −5.0): 3%
Percent Growth ([18]; Log10 Concentration −6.0): 71%
Percent Growth ([18]; Log10 Concentration −7.0): 83%
Percent Growth ([18]; Log10 Concentration −8.0): 87%
GI50 ([18]; NCI five dose): 2.05 µM
TGI ([18]; NCI five dose): 1.07E−5
Percent Growth ([19]; Log10 Concentration −4.0): −71%
Percent Growth ([19]; Log10 Concentration −5.0): −87%
Percent Growth ([19]; Log10 Concentration −6.0): 80%
Percent Growth ([19]; Log10 Concentration −7.0): 96%
Percent Growth ([19]; Log10 Concentration −8.0): 93%
GI50 ([19]; NCI five dose): 1.5 µM
TGI ([19]; NCI five dose): 3.00E−6

Source: patent US9469650B2, “Melampomagnolide B derivatives” (BOARD OF TRUSTEES OF THE UNIVERSITY OF ARKANSAS, priority 2013, dated 2016)
